Laboratory results published in patent US20240384268A1, “Oligonucleotides” (Hudson Institute of Medical Research, priority 2021, published 2024).
In the oligonucleotide strings, read from the 5' end, every base follows the letter of its sugar. An asterisk marks phosphorothioate; unmarked linkages are phosphodiester. Other units and linkages are bracketed, terminal groups are in braces. A string of capitals states the bases alone. d = 2'-deoxy (DNA); m = 2'-O-methyl

Columns and labels:
Assay type in all cases: cell-based
TLR8 = target: T1, TLR8 (Homo sapiens, UniProt Q9NR97); assay: HEK-TLR8 NF-κB-luciferase reporter, R848 or Motolimod stimulation (potentiation or inhibition); parameters: expressed in transfected cells; host or cells: 293XLhTLR8 (HEK293); conditions: HEK-TLR8; 500 nM ASO ~30 min; R848 overnight
T1 sequence (Q9NR97 27-1041): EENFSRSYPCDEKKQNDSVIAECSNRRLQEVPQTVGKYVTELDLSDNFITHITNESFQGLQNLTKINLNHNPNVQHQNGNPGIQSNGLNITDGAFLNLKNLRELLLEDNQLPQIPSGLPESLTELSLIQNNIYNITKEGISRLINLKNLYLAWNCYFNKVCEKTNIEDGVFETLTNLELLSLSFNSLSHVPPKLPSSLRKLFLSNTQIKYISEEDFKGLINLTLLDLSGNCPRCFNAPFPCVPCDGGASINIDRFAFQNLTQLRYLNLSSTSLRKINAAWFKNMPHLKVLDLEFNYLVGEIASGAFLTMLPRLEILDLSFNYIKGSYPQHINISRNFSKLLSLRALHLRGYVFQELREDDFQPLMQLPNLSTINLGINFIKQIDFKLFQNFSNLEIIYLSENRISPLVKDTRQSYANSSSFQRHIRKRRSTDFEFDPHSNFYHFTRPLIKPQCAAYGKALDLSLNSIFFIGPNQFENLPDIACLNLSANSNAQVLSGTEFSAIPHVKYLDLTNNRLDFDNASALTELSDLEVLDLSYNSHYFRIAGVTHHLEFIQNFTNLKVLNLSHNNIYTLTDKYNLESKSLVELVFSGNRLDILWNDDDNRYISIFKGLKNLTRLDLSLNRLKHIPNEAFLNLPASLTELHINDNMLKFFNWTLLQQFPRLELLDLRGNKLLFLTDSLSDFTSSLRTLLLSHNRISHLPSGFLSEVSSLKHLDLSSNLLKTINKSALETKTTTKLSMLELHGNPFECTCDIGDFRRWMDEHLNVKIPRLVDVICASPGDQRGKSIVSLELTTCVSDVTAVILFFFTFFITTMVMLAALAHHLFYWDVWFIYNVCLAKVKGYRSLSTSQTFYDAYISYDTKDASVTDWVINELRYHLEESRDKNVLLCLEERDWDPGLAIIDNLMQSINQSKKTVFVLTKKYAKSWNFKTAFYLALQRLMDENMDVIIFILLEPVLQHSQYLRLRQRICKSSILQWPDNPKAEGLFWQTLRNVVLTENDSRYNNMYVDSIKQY
Protocol: (§1) In such examples, potentiation of TLR8 activity can be identified by observation of an overall increased TLR8 response of the cell population, or a higher proportion of cells having TLR8-positive activity as compared to a negative control condition in which cells are treated with TLR8 agonist in the absence of the oligonucleotide (or in the presence of an appropriate control non-potentiating agent). In one example, 293XLhTLR8 (referred to as HEK-TLR8) cells are transfected with pNF-κB-Luc4 reporter, incubated with an oligonucleotide, and then stimulated with R848. TLR8 activity can be determined by a luciferase assay, which measures activated NF-κB by luminescence. TLR8 activity can also be analysed by measuring cytokine levels, for example by ELISA.
as §1, with “inhibition” for “potentiation”, “decreased” for “increased”, “lower” for “higher”, “positive” for “negative”, “inhibitory” for “non-potentiating”
(§2) For cGAS stimulations, cells were treated for indicated duration with ASOs, prior to transfection with ISD70 (human cells) or ISD45 (mouse cells) (the ASOs were not washed off prior to ISD transfection unless otherwise indicated). The cGAS ligands ISD45 (Stetson and Medzhitov, 2006) and ISD70 (also known as VACV-70 (Unterholzner et al., 2010)) (Table 1) were resuspended as follows: 5 1d of sense and 5 μl of antisense strands at 10 μg/μl were added to 90 μl PBS under sterile conditions, heated at 75° C. for 30 min, prior to letting cool down at room temperature and aliquoting (stock at 1 μg/1 l). The ISDs were transfected at a concentration of […] at a ratio of 1 μg:1 μl with Lipofectamine 2000 in Opti-MEM (Thermo Fisher Scientific). HEK-TLR3, HEK-TLR7 and […] were treated with indicated concentration of ASOs for 20-50 min, prior to stimulation with poly(I:C) (Invivogen), R848 (Invivogen), Motolimod (MedChemExpress) and the Class B CpG oligonucleotides ODN 2006 (synthesised by IDT and resuspended in RNase-free TE buffer [Table 1]), respectively. The TLR2/1 agonist PAM3CSK4 (Invivogen), the TLR4 agonist lipopolysaccharide (Invivogen), the Class B CpG oligonucleotides ODN 1826 (synthesised by IDT and resuspended in RNase-free TE buffer), the mouse Sting agonist DMXAA (Cayman) and the human STING agonist (compound #3 from (Raanjulu et al., 2018), referred to as GSK herein—kind gift from Cancer Therapeutics CRC, Australia) were used at indicated concentrations. Aspirin (Sigma—A2093) was resuspended in pure medium to 10 mM, filter sterilised and added to the cells at 2 mM final. All ASOs were synthesised by Integrated DNA Technologies (IDT), and resuspended in RNase-free TE buffer, pH 8.0 (Thermo Fisher Scientific). Cell viability was assessed by adding 1× fresh resazurin solution to the wells (10λ solution made up with 7 mg resazurin [Sigma—R7017] dissolved in 3.5 ml PBS, sterile filtered at […]) for 4 h, prior to reading at with a Fluostar OPTIMA (BMG LABTECH) plate-reader (fluorescence: Excitation 535 nm, Emission 590); wells with medium only and 1× resazurin were used as blanks.

cGAS = cGAS (Homo sapiens, UniProt Q8N884); assay: ISD70-driven IP-10 (and IFN-β) production in THP-1 cells, ELISA; parameters: endogenous in cells; host or cells: THP-1 (undifferentiated); conditions: THP-1; 2′OMe or PS oligos, 100-250 nM, pre-treatment as in figure legends; ISD70 2.5 μg/ml
Protocol: The ability of an oligonucleotide to inhibit cGAS activity can, for example, be analysed by incubating cells which express cGAS with an oligonucleotide, then stimulating said cells with a cGAS agonist (e.g., 70-bp interferon stimulating DNA or ISD70; 45-bp interferon stimulating DNA or ISD45), and analysing the overall cGAS response in the cell population, or analysing the proportion of cells having cGAS-positive activity after a defined period of time.
In such examples, inhibition of cGAS activity can be identified by observation of an overall decreased cGAS response of the cell population, or a lower proportion of cells having cGAS-positive activity as compared to positive control condition in which cells are treated with cGAS agonist in the absence of the oligonucleotide (or in the presence of an appropriate control inhibitory agent). In one example, THP-1 or HT-29 cells are transfected with ISD70 and incubated with an oligonucleotide. cGAS activity can then be determined by cytokine (e.g., IP-10 and/or IFNβ) expression (e.g., gene and/or protein expression) and/or secretion levels, such as by ELISA. A similar assay can be performed with LL171 cells transfected with ISD45. […] By way of example, cGAS enzymatic activity may be assessed in vitro using recombinant cGAS and then measuring activity thereof by way of a cGAMP ELISA.
as §2

human TLR9 = target: T2, human TLR9 (Homo sapiens, UniProt Q9NR96); assay: HEK-TLR9 NF-κB-luciferase reporter, ODN2006 stimulation; conditions: HEK-TLR9; 500 nM 2′OMe or PS oligos; 200 nM ODN2006
T2 construct: HA; host or cells: 293XL-hTLR9-HA (HEK293)
T2 sequence (Q9NR96 26-1032): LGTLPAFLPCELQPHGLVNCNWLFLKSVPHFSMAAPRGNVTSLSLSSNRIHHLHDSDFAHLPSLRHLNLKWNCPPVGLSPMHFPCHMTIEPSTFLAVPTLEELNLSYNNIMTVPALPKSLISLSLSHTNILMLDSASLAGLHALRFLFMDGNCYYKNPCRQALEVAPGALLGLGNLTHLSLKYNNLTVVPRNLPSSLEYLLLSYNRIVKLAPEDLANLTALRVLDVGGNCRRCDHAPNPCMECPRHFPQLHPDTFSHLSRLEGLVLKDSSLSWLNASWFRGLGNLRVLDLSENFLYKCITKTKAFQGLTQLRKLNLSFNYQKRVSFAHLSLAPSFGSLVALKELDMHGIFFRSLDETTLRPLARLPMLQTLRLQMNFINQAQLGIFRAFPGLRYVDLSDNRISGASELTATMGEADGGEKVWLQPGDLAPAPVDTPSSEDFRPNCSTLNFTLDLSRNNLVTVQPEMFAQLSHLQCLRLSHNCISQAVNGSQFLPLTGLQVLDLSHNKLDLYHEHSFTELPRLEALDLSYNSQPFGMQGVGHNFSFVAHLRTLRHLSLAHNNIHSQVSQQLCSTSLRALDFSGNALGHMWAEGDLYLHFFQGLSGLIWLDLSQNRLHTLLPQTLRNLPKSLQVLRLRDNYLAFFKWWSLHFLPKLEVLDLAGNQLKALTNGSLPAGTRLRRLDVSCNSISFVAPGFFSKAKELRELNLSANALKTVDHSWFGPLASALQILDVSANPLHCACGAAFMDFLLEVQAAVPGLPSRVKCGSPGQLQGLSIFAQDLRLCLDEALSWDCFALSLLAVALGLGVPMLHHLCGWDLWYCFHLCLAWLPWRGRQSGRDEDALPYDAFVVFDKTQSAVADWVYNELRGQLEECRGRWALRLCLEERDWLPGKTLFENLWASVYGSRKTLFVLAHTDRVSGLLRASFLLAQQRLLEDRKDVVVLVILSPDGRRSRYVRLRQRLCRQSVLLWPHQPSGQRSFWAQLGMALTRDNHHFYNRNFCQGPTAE
Protocol: In such examples, inhibition of TLR9 activity can be identified by observation of an overall decreased TLR9 response of the cell population, or a lower proportion of cells having TLR9-positive activity as compared to positive control condition in which cells are treated with TLR9 agonist in the absence of the oligonucleotide (or in the presence of an appropriate control inhibitory agent). In one example, HEK cells are transfected with TLR9 and a NF-κB reporter and incubated with an oligonucleotide and then stimulated with a TLR9 agonist. TLR9 activity can then be determined by a luciferase assay. TLR9 activity can also be analysed by measuring cytokine levels (e.g., IFN, IL-6, TNF and IL-12), for example by ELISA.
as §2
Following transfection, the cells were collected from the 6-wells and aliquoted into 96-wells, just before ASO and overnight TLR stimulation (as above described). Similarly, the LL171 cells expressing and ISRE-Luc reporter were treated overnight. The next day, the cells were lysed in 40 μl (for a 96-well plate) of 1× Glo Lysis buffer (Promega) for 10 min at room temperature. […] was then subjected to firefly luciferase assay using 40 μl of Luciferase Assay Reagent (Promega). Luminescence was quantified with a Fluostar OPTIMA (BMG LABTECH) luminometer.

Sequence of cGAS (Q8N884 whole entry): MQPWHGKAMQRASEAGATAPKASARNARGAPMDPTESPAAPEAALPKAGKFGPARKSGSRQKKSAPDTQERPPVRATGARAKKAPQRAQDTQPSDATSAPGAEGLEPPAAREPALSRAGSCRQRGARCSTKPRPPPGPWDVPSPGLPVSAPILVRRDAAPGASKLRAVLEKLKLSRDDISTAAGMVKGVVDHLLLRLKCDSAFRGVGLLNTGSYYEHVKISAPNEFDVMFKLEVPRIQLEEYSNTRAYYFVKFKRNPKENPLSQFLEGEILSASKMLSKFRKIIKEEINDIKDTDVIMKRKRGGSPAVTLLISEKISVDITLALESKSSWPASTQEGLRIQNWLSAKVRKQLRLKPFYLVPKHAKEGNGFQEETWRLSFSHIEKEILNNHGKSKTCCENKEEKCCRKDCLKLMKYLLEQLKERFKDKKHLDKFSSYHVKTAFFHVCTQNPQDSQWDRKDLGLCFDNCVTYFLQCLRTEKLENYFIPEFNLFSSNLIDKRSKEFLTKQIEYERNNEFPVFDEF

Row | Substance | inhibition of ISD70-driven IP-10 production (in words) (cGAS) | inhibition of TLR9 sensing of ODN2006 (in words) (human TLR9) | further results
1 | mC*mU*mU*mC*mG*T*G*G*G*G*T*C*C*T*T*mU*mU*mC*mA*mC (CUUCGTGGGGTCCTTUUCAC; antisense; sugars from the 5' end m5 d10 m5, all phosphorothioate, methylation of C not given here) [[HPRT]660] |  |  | TLR8 potentiation of R848 sensing, 20-mer ASOs (in words) (TLR8): strong potentiator of TLR8 sensing
2 | mG*mC*mG*mG*mU*A*T*C*C*A*T*C*A*G*A*mU*mA*mU*mC*mG (mG*mC*mG*mG*mU*dA*dT*dC*dC*dA*dT*dC*dA*dG*dA*mU*mA*mU*mC*mG; antisense) [C2-ASO2-B] | significantly less inhibitory than C2-ASO2-A |  | 
3 | mGmCmGmGmUmAmUmCmCmAmUmGmUmCmCmCmAmGmGmC (GCGGUAUCCAUGUCCCAGGC; all 2'-O-methyl, backbone not given here) [fully 2′Ome modified version of C2Mut1] | strongly blunting of cGAS activation |  | 
4 | mU*mC*mC*mG*mG*G*T*C*G*T*A*G*T*T*G*mC*mU*mU*mC*mC (UCCGGGTCGTAGTTGCUUCC; antisense; sugars from the 5' end m5 d10 m5, all phosphorothioate, methylation of C not given here) [ASO11Mut2] |  | conferred significant TLR9 inhibition | 
5 | mU*mU*mC*mU*mG*G*G*G*A*C*T*T*C*C*A*mG*mU*mU*mU*mA (mU*mU*mC*mU*mG*dG*dG*dG*dA*dC*dT*dT*dC*dC*dA*mG*mU*mU*mU*mA; antisense) [ASO9] |  | significantly inhibited TLR9 sensing of ODN2006 | 
